# Assay results reported in patent publication US20080194585A1, “Fungicidal Pyrazine Derivatives” (priority 2005, published 2008).
# Marks after values point to notes of the source that are not given here.
# Key:
# Plasmopara viticola = assay: Test D: grape downy mildew, spray after inoculation of grape seedlings; assay type: in vivo
# Excerpt: Upon removal, disease ratings were made. […] A dash (-) indicates no test results.
# Phytophthora infestans = assay: whole plant or invertebrate; assay type: in vivo
# Septoria tritici = assay: Test J: wheat leaf blotch, preventive spray on wheat seedlings; assay type: in vivo
# Excerpt: A dash (-) indicates no test results.
# fusarium graminearium = assay: Test I: wheat head scab, preventive spray on wheat seedlings
# Procedure: (the causal agent of wheat head scab) and incubated in a saturated atmosphere at 20° C. for 72 h, and then moved to a growth chamber at 22° C. for 5 days, after which disease ratings were made.
# [1] = system: Puccinia recondita f. sp. tritici; assay: Test K: wheat leaf rust, preventive spray on wheat seedlings
# Botrytis cinerea = assay: Test E: tomato botrytis, preventive spray on tomato seedlings
# Septoria nodorum = assay: Test H: wheat glum blotch, preventive spray on wheat seedlings
# Procedure: (the causal agent of wheat glum blotch) and incubated in a saturated atmosphere at 20° C. for 48 h, and then moved to a growth chamber at 22° C. for 5 days, after which disease ratings were made.
# [2] = system: Erysiphe graminis f. sp. tritici; assay: Test L: wheat powdery mildew, preventive spray on wheat seedlings
# Sclerotinia sclerotiorum = assay: Test C: cucumber white mold, preventive spray on cucumber seedlings
# Pythium aphanidermatum = assay: Test A: bluegrass pythium blight, preventive spray on bluegrass seedlings
# Rhizoctonia oryzae = assay: Test G: turf brown patch, preventive spray on creeping bent grass seedlings
# Procedure: (the causal agent of turf brown patch) and incubated in a saturated atmosphere at 27° C. for 24 h, and then moved to a growth chamber at 27° C. for 5 days, after which disease ratings were made.
# [3] = system: Colletotrichum orbiculare; assay: Test B: cucumber Colletotrichum anthracnose, preventive spray on cucumber seedlings
# [4] = 200 ppm, 100 = 100% disease control, 0 = no control
# [5] = 40 ppm (marked *), 100 = 100% disease control, 0 = no control
compound,measurement,setting,value
CC(CF)n1c(-c2c(F)cccc2F)c(Cl)nc(-n2cccn2)c1=O (stereo not drawn) [compound 238],Test D disease control rating,Plasmopara viticola; 40 ppm (*),0* %
same,Test F disease control rating,Phytophthora infestans; 40 ppm (*),0* %
same,Test J disease control rating,Septoria tritici; 40 ppm (*),96* %
same,Test I disease control rating,fusarium graminearium; 40 ppm (*),0* %
same,Test K disease control rating,[1]; 40 ppm (*),100* %
same,Test E disease control rating,Botrytis cinerea; 40 ppm (*),99* %
same,Test H disease control rating,Septoria nodorum; 40 ppm (*),98* %
same,Test L disease control rating,[2]; 40 ppm (*),74* %
same,Test C disease control rating,Sclerotinia sclerotiorum; 40 ppm (*),0* %
same,Test A disease control rating,Pythium aphanidermatum; 40 ppm (*),0* %
same,Test G disease control rating,Rhizoctonia oryzae; 40 ppm (*),93* %
same,Test B disease control rating,[3]; 40 ppm (*),63* %
Cc1ccn(-c2nc(Br)c(-c3c(F)cccc3F)n(CC(C)C)c2=O)n1 [compound 242],Test D disease control rating,Plasmopara viticola; 40 ppm (*),0* %
same,Test F disease control rating,Phytophthora infestans; 40 ppm (*),0* %
same,Test J disease control rating,Septoria tritici; 40 ppm (*),100* %
same,Test I disease control rating,fusarium graminearium; 40 ppm (*),0* %
same,Test K disease control rating,[1]; 40 ppm (*),92* %
same,Test E disease control rating,Botrytis cinerea; 40 ppm (*),100* %
same,Test H disease control rating,Septoria nodorum; 40 ppm (*),94* %
same,Test L disease control rating,[2]; 40 ppm (*),99* %
same,Test C disease control rating,Sclerotinia sclerotiorum; 40 ppm (*),0* %
same,Test A disease control rating,Pythium aphanidermatum; 40 ppm (*),0* %
same,Test G disease control rating,Rhizoctonia oryzae; 40 ppm (*),82* %
same,Test B disease control rating,[3]; 40 ppm (*),73* %
Cc1ccn(-c2nc(Cl)c(-c3cccc4c3OCO4)n(CC(C)C)c2=O)n1 [compound 255],Test D disease control rating,Plasmopara viticola; [4],0%
same,Test F disease control rating,Phytophthora infestans; [4],0%
same,Test J disease control rating,Septoria tritici; [4],71%
same,Test I disease control rating,fusarium graminearium; [4],0%
same,Test K disease control rating,[1]; [4],61%
same,Test E disease control rating,Botrytis cinerea; [4],99%
same,Test H disease control rating,Septoria nodorum; [4],0%
same,Test L disease control rating,[2]; [4],0%
same,Test C disease control rating,Sclerotinia sclerotiorum; [4],0%
same,Test A disease control rating,Pythium aphanidermatum; [4],0%
same,Test G disease control rating,Rhizoctonia oryzae; [4],0%
same,Test B disease control rating,[3]; [4],0%
Cc1ccn(-c2nc(Cl)c(-c3ccc4c(c3)OC(F)(F)O4)n(CC(C)C)c2=O)n1 [compound 256],Test D disease control rating,Plasmopara viticola; [4],0%
same,Test F disease control rating,Phytophthora infestans; [4],0%
same,Test J disease control rating,Septoria tritici; [4],38%
same,Test I disease control rating,fusarium graminearium; [4],0%
same,Test K disease control rating,[1]; [4],0%
same,Test E disease control rating,Botrytis cinerea; [4],0%
same,Test H disease control rating,Septoria nodorum; [4],0%
same,Test L disease control rating,[2]; [4],0%
same,Test C disease control rating,Sclerotinia sclerotiorum; [4],0%
same,Test A disease control rating,Pythium aphanidermatum; [4],0%
same,Test G disease control rating,Rhizoctonia oryzae; [4],0%
same,Test B disease control rating,[3]; [4],0%
Cc1ccn(-c2nc(Cl)c(-c3cc4c(cc3Cl)OCO4)n(CC(C)C)c2=O)n1 [compound 257],Test D disease control rating,Plasmopara viticola; [4],0%
same,Test F disease control rating,Phytophthora infestans; [4],0%
same,Test J disease control rating,Septoria tritici; [4],71%
same,Test I disease control rating,fusarium graminearium; [4],0%
same,Test K disease control rating,[1]; [4],74%
same,Test E disease control rating,Botrytis cinerea; [4],99%
same,Test H disease control rating,Septoria nodorum; [4],0%
same,Test L disease control rating,[2]; [4],0%
same,Test C disease control rating,Sclerotinia sclerotiorum; [4],0%
same,Test A disease control rating,Pythium aphanidermatum; [4],81%
same,Test G disease control rating,Rhizoctonia oryzae; [4],0%
same,Test B disease control rating,[3]; [4],0%
Cc1cc(C)c(-c2c(Cl)nc(-n3ccc(C)n3)c(=O)n2CC(C)C)c(C)c1 [compound 258],Test D disease control rating,Plasmopara viticola; [5],0* %
same,Test F disease control rating,Phytophthora infestans; [5],0* %
same,Test J disease control rating,Septoria tritici; [5],82* %
same,Test I disease control rating,fusarium graminearium; [5],0* %
same,Test K disease control rating,[1]; [5],41* %
same,Test E disease control rating,Botrytis cinerea; [5],59* %
same,Test H disease control rating,Septoria nodorum; [5],0* %
same,Test L disease control rating,[2]; [5],0* %
same,Test C disease control rating,Sclerotinia sclerotiorum; [5],49* %
same,Test A disease control rating,Pythium aphanidermatum; [5],0* %
same,Test G disease control rating,Rhizoctonia oryzae; [5],0* %
same,Test B disease control rating,[3]; [5],0* %
CCCCn1c(-c2ccc(F)cc2Cl)c(Cl)nc(-n2ccc(C)n2)c1=O [compound 265],Test D disease control rating,Plasmopara viticola; [5],0* %
same,Test F disease control rating,Phytophthora infestans; [5],0* %
same,Test J disease control rating,Septoria tritici; [5],100* %
same,Test I disease control rating,fusarium graminearium; [5],0* %
same,Test K disease control rating,[1]; [5],94* %
same,Test E disease control rating,Botrytis cinerea; [5],100* %
same,Test H disease control rating,Septoria nodorum; [5],95* %
same,Test L disease control rating,[2]; [5],91* %
same,Test C disease control rating,Sclerotinia sclerotiorum; [5],0* %
same,Test A disease control rating,Pythium aphanidermatum; [5],0* %
same,Test G disease control rating,Rhizoctonia oryzae; [5],50* %
same,Test B disease control rating,[3]; [5],90* %
CCCCn1c(-c2ccc(F)cc2Cl)c(Cl)nc(-n2cccn2)c1=O [compound 266],Test D disease control rating,Plasmopara viticola; [5],0* %
same,Test F disease control rating,Phytophthora infestans; [5],0* %
same,Test J disease control rating,Septoria tritici; [5],100* %
same,Test I disease control rating,fusarium graminearium; [5],0* %
same,Test K disease control rating,[1]; [5],99* %
same,Test E disease control rating,Botrytis cinerea; [5],100* %
same,Test H disease control rating,Septoria nodorum; [5],99* %
same,Test L disease control rating,[2]; [5],99* %
same,Test C disease control rating,Sclerotinia sclerotiorum; [5],0* %
same,Test A disease control rating,Pythium aphanidermatum; [5],0* %
same,Test G disease control rating,Rhizoctonia oryzae; [5],90* %
same,Test B disease control rating,[3]; [5],99* %
CCCCn1c(-c2ccc(F)cc2Cl)c(Cl)nc(N2CCC=N2)c1=O [compound 267],Test D disease control rating,Plasmopara viticola; [5],0* %
same,Test F disease control rating,Phytophthora infestans; [5],0* %
same,Test J disease control rating,Septoria tritici; [5],60* %
same,Test I disease control rating,fusarium graminearium; [5],0* %
same,Test K disease control rating,[1]; [5],68* %
same,Test E disease control rating,Botrytis cinerea; [5],100* %
same,Test H disease control rating,Septoria nodorum; [5],0* %
same,Test L disease control rating,[2]; [5],0* %
same,Test C disease control rating,Sclerotinia sclerotiorum; [5],0* %
same,Test A disease control rating,Pythium aphanidermatum; [5],0* %
same,Test G disease control rating,Rhizoctonia oryzae; [5],0* %
same,Test B disease control rating,[3]; [5],0* %
O=c1c(-n2cccn2)nc(Cl)c(-c2c(F)cccc2F)n1CCO [compound 268],Test D disease control rating,Plasmopara viticola; [5],0* %
same,Test F disease control rating,Phytophthora infestans; [5],0* %
same,Test J disease control rating,Septoria tritici; [5],7* %
same,Test I disease control rating,fusarium graminearium; [5],0* %
same,Test K disease control rating,[1]; [5],82* %
same,Test E disease control rating,Botrytis cinerea; [5],0* %
same,Test H disease control rating,Septoria nodorum; [5],0* %
same,Test L disease control rating,[2]; [5],0* %
same,Test C disease control rating,Sclerotinia sclerotiorum; [5],0* %
same,Test A disease control rating,Pythium aphanidermatum; [5],0* %
same,Test G disease control rating,Rhizoctonia oryzae; [5],0* %
same,Test B disease control rating,[3]; [5],0* %
O=c1c(-n2cccn2)nc(Cl)c(-c2c(F)cccc2F)n1CCF [compound 269],Test D disease control rating,Plasmopara viticola; [5],0* %
same,Test F disease control rating,Phytophthora infestans; [5],0* %
same,Test J disease control rating,Septoria tritici; [5],99* %
same,Test I disease control rating,fusarium graminearium; [5],0* %
same,Test K disease control rating,[1]; [5],91* %
same,Test E disease control rating,Botrytis cinerea; [5],0* %
same,Test H disease control rating,Septoria nodorum; [5],100* %
same,Test L disease control rating,[2]; [5],0* %
same,Test C disease control rating,Sclerotinia sclerotiorum; [5],0* %
same,Test A disease control rating,Pythium aphanidermatum; [5],0* %
same,Test G disease control rating,Rhizoctonia oryzae; [5],0* %
same,Test B disease control rating,[3]; [5],0* %
O=c1c(-n2cccn2)nc(Cl)c(-c2c(F)cccc2F)n1CCBr [compound 270],Test D disease control rating,Plasmopara viticola; [5],24* %
same,Test F disease control rating,Phytophthora infestans; [5],0* %
same,Test J disease control rating,Septoria tritici; [5],95* %
same,Test I disease control rating,fusarium graminearium; [5],0* %
same,Test K disease control rating,[1]; [5],94* %
same,Test E disease control rating,Botrytis cinerea; [5],85* %
same,Test H disease control rating,Septoria nodorum; [5],0* %
same,Test L disease control rating,[2]; [5],0* %
same,Test C disease control rating,Sclerotinia sclerotiorum; [5],0* %
same,Test A disease control rating,Pythium aphanidermatum; [5],0* %
same,Test G disease control rating,Rhizoctonia oryzae; [5],0* %
same,Test B disease control rating,[3]; [5],0* %
O=c1c(-n2cccn2)nc(Cl)c(-c2c(F)cccc2F)n1Cc1ccc(F)cc1 [compound 272],Test D disease control rating,Plasmopara viticola; [5],57* %
same,Test F disease control rating,Phytophthora infestans; [5],0* %
same,Test J disease control rating,Septoria tritici; [5],100* %
same,Test I disease control rating,fusarium graminearium; [5],0* %
same,Test K disease control rating,[1]; [5],100* %
same,Test E disease control rating,Botrytis cinerea; [5],100* %
same,Test H disease control rating,Septoria nodorum; [5],99* %
same,Test L disease control rating,[2]; [5],100* %
same,Test C disease control rating,Sclerotinia sclerotiorum; [5],44* %
same,Test A disease control rating,Pythium aphanidermatum; [5],0* %
same,Test G disease control rating,Rhizoctonia oryzae; [5],59* %
same,Test B disease control rating,[3]; [5],95* %
O=c1c(-n2cncn2)nc(Cl)c(-c2c(F)cccc2F)n1Cc1ccc(F)cc1 [compound 273],Test D disease control rating,Plasmopara viticola; [5],0* %
same,Test F disease control rating,Phytophthora infestans; [5],0* %
same,Test J disease control rating,Septoria tritici; [5],92* %
same,Test I disease control rating,fusarium graminearium; [5],0* %
same,Test K disease control rating,[1]; [5],86* %
same,Test E disease control rating,Botrytis cinerea; [5],99* %
same,Test H disease control rating,Septoria nodorum; [5],0* %
same,Test L disease control rating,[2]; [5],0* %
same,Test C disease control rating,Sclerotinia sclerotiorum; [5],0* %
same,Test A disease control rating,Pythium aphanidermatum; [5],0* %
same,Test G disease control rating,Rhizoctonia oryzae; [5],0* %
same,Test B disease control rating,[3]; [5],0* %
N#Cc1nc(Cl)c(-c2c(F)cccc2F)n(Cc2ccc(F)cc2)c1=O [compound 274],Test D disease control rating,Plasmopara viticola; [5],0* %
same,Test F disease control rating,Phytophthora infestans; [5],0* %
same,Test J disease control rating,Septoria tritici; [5],45* %
same,Test I disease control rating,fusarium graminearium; [5],0* %
same,Test K disease control rating,[1]; [5],91* %
same,Test E disease control rating,Botrytis cinerea; [5],0* %
same,Test H disease control rating,Septoria nodorum; [5],0* %
same,Test L disease control rating,[2]; [5],71* %
same,Test C disease control rating,Sclerotinia sclerotiorum; [5],0* %
same,Test A disease control rating,Pythium aphanidermatum; [5],0* %
same,Test G disease control rating,Rhizoctonia oryzae; [5],0* %
same,Test B disease control rating,[3]; [5],0* %
O=c1c(-n2cccn2)nc(Cl)c(-c2c(F)cccc2F)n1Cc1cccc(Cl)c1 [compound 275],Test D disease control rating,Plasmopara viticola; [5],0* %
same,Test F disease control rating,Phytophthora infestans; [5],0* %
same,Test J disease control rating,Septoria tritici; [5],100* %
same,Test I disease control rating,fusarium graminearium; [5],0* %
same,Test K disease control rating,[1]; [5],97* %
same,Test E disease control rating,Botrytis cinerea; [5],100* %
same,Test H disease control rating,Septoria nodorum; [5],99* %
same,Test L disease control rating,[2]; [5],61* %
same,Test C disease control rating,Sclerotinia sclerotiorum; [5],0* %
same,Test A disease control rating,Pythium aphanidermatum; [5],0* %
same,Test G disease control rating,Rhizoctonia oryzae; [5],0* %
same,Test B disease control rating,[3]; [5],47* %
